Tested on: microbial cell containing a nitrile hydratase
Assay type: biochemical
Conditions: benzene 26 ppm or acrolein 2 ppm in raw material acrylonitrile; more wet microbial cell needed
Protocol: There were prepared a 1-liter glass flask equipped with a stirrer as a first reactor and a Teflon (trademark) tube with an inside diameter of 5 mm and a length of 20 m as a second reactor. To the first reactor was charged 400 g of water in advance.
In accordance with the method described in Japanese Patent Application Laid-Open Publication No. 2001-340091, a microbial cell containing a nitrile hydratase was cultured and the resulting wet microbial cell was suspended in a 0.3 mM-NaOH aqueous solution. The suspension and the acrylonitrile b were continuously fed into the first reactor under stirring at a rate of 49 g/h and 31 g/h, respectively. In addition, the reaction solution was continuously taken out from the first reactor at a rate of 80 g/h so that the liquid level of the first reactor was maintained constant. The liquid taken out was continuously fed into the second reactor at a rate of 80 g/h and the reaction was further performed in the second reactor. […]
The amount of the wet microbial cell added to the 0.3 mM-NaOH aqueous solution was adjusted so that the conversion rate to acrylamide at the outlet of the first reactor was 90% or higher and the concentration of acrylonitrile at the outlet of the second reactor was at the detection limit or less (100 ppm or less). The conversion rate to acrylamide was determined by the analysis of HPLC. […]

| Structure (SMILES) | inhibition of reaction by impurity in acrylonitrile |
| --- | --- |
| C=CC=O [acrolein] | inhibition of reaction by acrolein was confirmed |
| c1ccccc1 [benzene] | inhibition of reaction by benzene was confirmed |
